Results: patent US10183944B2 (Asana Biosciences, LLC, priority 2011, dated 2019)
Structures can show the parent of a compound that is named as a salt. Where two headings read alike, the source gives them in different places.

Legend:
[1] = target: Syk (356-635 amino acids) catalytic domain (Homo sapiens (Human), UniProt P43405); assay: Inhibition of enzymatic Syk kinase activity (radiometric); format: biochemical; details: read-out: IC50 Syk
Method in brief: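 Radiometric filter-binding format: 32P transfer from γ-32P-ATP onto pG4T, scintillation-counted after acid washes of P81 paper. Syk kinase domain (356-635), 0.035–7.5 ng per reaction, was exposed to compound for 30 minutes at room temperature before a 10-minute, 30° C. reaction with ATP (100 μM stock). Inhibition derived from counts with versus without compound.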

[2] = target: JAK2 (Homo sapiens (Human), UniProt O60674); assay: Inhibition of enzymatic JAK2 kinase activity (TR-FRET); format: biochemical; details: read-out: IC50 JAK
Method in brief: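 TR-FRET read-out (Eu antibody donor, Ulight poly Glu-Tyr acceptor, 665/615 nm ratio) after a 60 min RT kinase reaction with ATP, begun following 30 min compound–enzyme preincubation. Stopped by EDTA; inhibition expressed as 100 minus % activity of positive control.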

[3] = test system: RBL2H3 cells; assay: Degranulation assay: β-hexosaminidase release during immune complex mediated degranulation; format: cell-based, rat; details: Rattus norvegicus, RBL-2H3; for inhibition at 1 µM: read-out: Degranulation % inhibition at 1 μM; for EC50: read-out: Degranulation EC50
Procedure: The objective of this assay was to examine by Fluorescence method the effect of compounds on β-hexosaminidase release during immune complex mediated degranulation in RBL2H3 cells. Compounds were tested for their ability to inhibit the ability of this immune complex to mediate β-hexosaminidase release, in an enzyme assay with […] as substrate. […] Emission 460 nm). [table] [table] RBL2H3 cells were maintained in MEM complete media containing 10% FBS at 70%-80% confluence in a mammalian cell culture CO2 incubator with 5% CO2 at 37° C. 2×10^5 cells/well were plated in 1 mL of complete media and incubated for 5 hours for cell attachment. Complete media was replaced with 1 mL of serum free MEM media containing 1.2 μg/mL of anti-DNP rat IgE as sensitizing agent and further incubated overnight with 5% CO2 at 37° C. […] Cells were further stimulated with 5 μg/mL of DNP-BSA for 60 minutes. Plates were centrifuged for 5 minutes at 1000 rpm and 25 μL of culture supernatant was transferred from each assay well into a 96 well black coated plate. 25 μL β-NAG substrate was added to this mixture and incubated at room temperature for 30 minutes. The reaction was terminated with 100 μL of stop solution and fluorescence was monitored. (Excitation 355 nm; Emission 460 nm) See, Sanderson, (2010), Cellular Immunology, 262(1): 28-34 and Silverman, (2006) MCB, 26(5):1826-1838, which are incorporated herein by reference. The % release of β-Hexosaminidase for the test compound was calculated using the following formula: RBL2H3 cells were maintained in MEM complete media containing 10% FBS at 70-80% confluence in a mammalian cell culture CO2 incubator with 5% CO2 at 37° C. 5×10^4 cells/well were plated in 200 μL of complete media containing 0.3 μg/mL of anti-DNP rat IgE as sensitizing agent for 24 hours at 37° C. & 5% CO2. The following day, cells were washed twice with PIPES buffer for 10 minutes at 37° C. and replenished with serum free MEM media. Cells were treated with various concentrations of test compounds (in 0.5% DMSO) for 15 minutes at 37° C. and 5% CO2. The cells were further stimulated with 0.1 μg/mL of DNP-BSA for 45 minutes. The plates were spun for 5 minutes at 2000 rpm and 25 μL of culture supernatant was then transferred from each assay well into a 96 well black coated plate. […] β-NAG substrate was added and incubated at RT for 30 minutes. After incubation with substrate, 150 μL of stop solution was added and fluorescence was monitored. (Excitation 355 nm; Emission 460 nm). See, Yamamoto, JPET, 306(3):1174-1181 (2003) and Taylor, MCB, 15(8): 4149-4157 (1995), which are herein incorporated by reference. Release of β-hexosaminidase during the degranulation process by immune complex mediated FcεRI stimulation is through the SYK pathway. The % inhibition of β-hexosaminidase release by Syk inhibitor gives information with regard to its Syk inhibition potency.

[4] = Assay Protocol A (24 well format)
[5] = Assay Protocol B (96 well format)

Chain of JAK2 (O60674 808-1132): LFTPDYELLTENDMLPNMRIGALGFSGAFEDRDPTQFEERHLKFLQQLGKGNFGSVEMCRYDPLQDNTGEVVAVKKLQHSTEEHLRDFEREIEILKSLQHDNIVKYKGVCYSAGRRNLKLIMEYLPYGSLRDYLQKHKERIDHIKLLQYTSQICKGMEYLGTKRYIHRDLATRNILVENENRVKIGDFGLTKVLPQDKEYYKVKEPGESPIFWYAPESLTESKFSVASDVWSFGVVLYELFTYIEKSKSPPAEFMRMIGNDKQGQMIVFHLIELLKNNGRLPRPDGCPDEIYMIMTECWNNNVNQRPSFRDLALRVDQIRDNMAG

IC50 ([1]; hydrochloride)	IC50 [2]	IC50 [1]	EC50 [3, 5]	SMILES	inhibition at 1 µM [3, 4]	inhibition at 1 µM [3, 5]
< 50 nM	< 100 nM			NCC(=O)N1CCN(c2ccc(Nc3nc(-c4ccccc4)nc4cn[nH]c(=O)c34)cc2)CC1 [Example 11, 4-(4-(4-(2-aminoacetyl)piperazin-1-yl)phenylamino)-2-phenylpyrimido[4,5-d]pyridazin-5(6H)-one hydrochloride]	100%	
	< 50 nM	< 10 nM	20 nM	CN(C)CCN1CCN(c2ccc(Nc3nc(N4CCC(CC#N)CC4)nc4cn[nH]c(=O)c34)cc2)CC1 [Example 268, 2-(1-(4-((4-(4-(2-(dimethylamino)ethyl)piperazin-1-yl)phenyl)amino)-5-oxo-5,6-dihydropyrimido[4,5-d]pyridazin-2-yl)piperidin-4-yl)acetonitrile]		93%
	< 10 nM	< 10 nM		O=c1[nH]ncc2nc(-c3ccccc3)nc(Nc3ccc(N4CCNCC4)cc3)c12 [Example 8, 2-phenyl-4-(4-(piperazin-1-yl)phenylamino)pyrimido[4,5-d]pyridazin-5(6H)-one]	98%	
	< 10 nM	< 10 nM	116 nM	O=C(O)C[C@H]1CC[C@@H](c2ccc(Nc3nc(N4CCCCCC4)nc4cn[nH]c(=O)c34)cc2)CC1 [Example 123, 2-((1S,4S)-4-(4-((2-(azepan-1-yl)-5-oxo-5,6-dihydropyrimido[4,5-d]pyridazin-4-yl)amino)phenyl)cyclohexyl)acetic acid]		90%
	< 10 nM	< 50 nM	101 nM	O=c1[nH]ncc2nc(N3CCCCCC3)nc(Nc3ccc(OCCN4CCC(O)CC4)cc3)c12 [Example 172, 2-(azepan-1-yl)-4-((4-(2-(4-hydroxypiperidin-1-yl)ethoxy)phenyl)amino)pyrimido[4,5-d]pyridazin-5(6H)-one]		50%
	< 50 nM	< 50 nM		O=c1[nH]ncc2nc(-c3ccccc3)nc(Nc3ccc(N4CCOCC4)cc3)c12 [Example 1, 4-(4-morpholinophenylamino)-2-phenylpyrimido[5,4-d]pyridazin-5(6H)-one]	85%	
	< 10 nM	< 10 nM	13 nM	CC(C)N(c1nc(Nc2ccc(CN3CCNCC3)cc2)c2c(=O)[nH]ncc2n1)C(C)C [Example 54, 2-(diisopropylamino)-4-((4-(piperazin-1-ylmethyl)phenyl)amino)pyrimido[4,5-d]pyridazin-5(6H)-one hydrochloride]		100%
	> 100 nM	< 10 nM		CCOc1nc(Nc2ccc(CN3CCNCC3)cc2)c2c(=O)[nH]ncc2n1 [Example 50, 2-ethoxy-4-((4-(piperazin-1-ylmethyl)phenyl)amino)pyrimido[4,5-d]pyridazin-5(6H)-one hydrochloride]		49%
	< 10 nM	< 10 nM	54 nM	N#CCC1CCN(c2nc(Nc3ccc(N4CCCN(CCO)CC4)cc3)c3c(=O)[nH]ncc3n2)CC1 [Example 264, 2-(1-(4-((4-(4-(2-hydroxyethyl)-1,4-diazepan-1-yl)phenyl)amino)-5-oxo-5,6-dihydropyrimido[4,5-d]pyridazin-2-yl)piperidin-4-yl)acetonitrile]		75%
	< 10 nM	< 10 nM	280 nM	O=C(O)CC1CCN(CCOc2ccc(Nc3nc(N4CCCCCC4)nc4cn[nH]c(=O)c34)cc2)CC1 [Example 96, 2-(1-(2-(4-((2-(azepan-1-yl)-5-oxo-5,6-dihydropyrimido[4,5-d]pyridazin-4-yl)amino)phenoxy)ethyl)piperidin-4-yl) acetic acid]		85%
	< 50 nM	< 10 nM	26 nM	CC(C)(O)C1CCN(c2ccc(Nc3nc(N4CCC(CC#N)CC4)nc4cn[nH]c(=O)c34)cc2)CC1 [Example 146, 2-(1-(4-((4-(4-(2-hydroxypropan-2-yl)piperidin-1-yl)phenyl)amino)-5-oxo-5,6-dihydropyrimido[4,5-d]pyridazin-2-yl)piperidin-4-yl)acetonitrile]		66%
	< 50 nM	< 50 nM	2320 nM	O=C(O)CN1CCCN(c2ccc(Nc3nc(N4CCCCC4)nc4cn[nH]c(=O)c34)cc2)CC1 [Example 154, 2-(4-(4-((5-oxo-2-(piperidin-1-yl)-5,6-dihydropyrimido[4,5-d]pyridazin-4-yl)amino)phenyl)-1,4-diazepan-1-yl)acetic acid]		23%
	< 50 nM	< 50 nM	28 nM	N#CCC1CCN(c2nc(Nc3ccc(CCN4CCN(CCO)CC4)cc3)c3c(=O)[nH]ncc3n2)CC1 [Example 212, 2-(1-(4-((4-(2-(4-(2-hydroxyethyl)piperazin-1-yl)ethyl)phenyl)amino)-5-oxo-5,6-dihydropyrimido[4,5-d]pyridazin-2-yl)piperidin-4-yl)acetonitrile]		71%
	< 10 nM	< 10 nM	174 nM	O=C(O)CC1CCCN(c2ccc(Nc3nc(N4CCCCCC4)nc4cn[nH]c(=O)c34)cc2)C1 (stereo not drawn) [Example 233, 2-(1-(4-((2-(azepan-1-yl)-5-oxo-5,6-dihydropyrimido[4,5-d]pyridazin-4-yl)amino)phenyl)piperidin-3-yl)acetic acid]		20%
	< 50 nM	< 10 nM	111 nM	O=C(O)CCCOc1ccc(Nc2nc(N3CCCCCC3)nc3cn[nH]c(=O)c23)cc1 [Example 92, 4-(4-((2-(azepan-1-yl)-5-oxo-5,6-dihydropyrimido[4,5-d]pyridazin-4-yl)amino)phenoxy)butanoic acid]		100%
	< 10 nM	< 50 nM	162 nM	O=C(O)C1CC12CCN(CCOc1ccc(Nc3nc(N4CCCCCC4)nc4cn[nH]c(=O)c34)cc1)CC2 (stereo not drawn) [Example 158, 6-(2-(4-((2-(azepan-1-yl)-5-oxo-5,6-dihydropyrimido[4,5-d]pyridazin-4-yl)amino)phenoxy)ethyl)-6-azaspiro[2.5]octane-1-carboxylic acid]		53%
	< 10 nM	< 10 nM	306 nM	O=c1[nH]ncc2nc(N3CCCCCC3)nc(Nc3ccc(N4CCC(Cc5nn[nH]n5)CC4)cc3)c12 [Example 244, 4-((4-(4-((2H-tetrazol-5-yl)methyl)piperidin-1-yl)phenyl)amino)-2-(azepan-1-yl)pyrimido[4,5-d]pyridazin-5(6H)-one]		23%

SMILES	IC50 ([1]; hydrochloride)	IC50 [2]	IC50 [1]	EC50 [3, 5]	inhibition at 1 µM [3, 4]	inhibition at 1 µM [3, 5]
O=c1[nH]ncc2nc(N3CCCCCC3)nc(Nc3ccc(CCN4CCC(O)CC4)cc3)c12 [Example 201, 2-(azepan-1-yl)-4-((4-(2-(4-hydroxypiperidin-1-yl)ethyl)phenyl)amino)pyrimido[4,5-d]pyridazin-5(6H)-one]		< 10 nM	< 10 nM	31 nM		88%
O=c1[nH]ncc2nc(N3CCCCCC3)nc(Nc3ccc(N4CCC(O)CC4)cc3)c12 [Example 186, 2-(azepan-1-yl)-4-((4-(4-hydroxypiperidin-1-yl)phenyl)amino) pyrimido[4,5-d]pyridazin-5(6H)-one]		< 100 nM	< 10 nM	10 nM		93%
